Data: patent publication US7786142B2, “Heterocyclic compounds as pSTAT3/IL-6 inhibitors” (Orchid Research Laboratories, Ltd., priority 2005, dated 2010)

What was measured:
[1] = tested on: MDAMB-231/U 251; assay: Anti-cancer screen (MTT), MDAMB-231/U 251 cells; format: cell-based; details: MDAMB-231/U 251, 48 hours, concentrations tested 0.01-100 μM; for CC50: read-out: LC50 (the source's name)
Description: (§1) Experimental drugs are screened for anti-cancer activity in three cell lines for their GI50, TGI and LC50 values (using five concentrations for each compound). The cell lines are maintained in DMEM containing 10% fetal bovine serum. 96 well micro titer plates are inoculated with cells in 100 μL for 24 hours at 37° C., 5% CO2, 95% air and 100% relative humidity. 5000 HCT116 cells/well, 5000 NCIH460 cells/well and 5000 U251 cells/well are plated. A separate plate with these cell lines is also inoculated to determine cell viability before the addition of the compounds (T0), (See Table I).
(§2) Following 24-hours incubation, experimental drugs are added to the 96 well plates. Each plate contains one of the above cell lines and the following in triplicate: five different concentrations (0.01, 0.1, 1, 10 and 100 μM) of four different compounds, appropriate dilutions of a cytotoxic standard and control (untreated) wells. Compounds are dissolved in DMSO to make 20 mM stock solutions on the day of drug addition and frozen at −20° C. Serial dilutions of these 20 mM stock solutions are made in complete growth medium such that 100 μL of these drug solutions in medium, of final concentrations equaling 0.01, 0.1, 1, 10 and 100 μM can be added to the cells in triplicate. Standard drugs whose anti-cancer activity has been well documented and which are regularly used are Doxorubicin and SAHA, (See Table I).
(§3) For T0 measurement, 24 hours after seeding the cells, 10 μL of 3-(4,5-Dimethyl-2-thiazolyl)-2,5-diphenyl-2H-tetrazolium (MTT) solution per well is added and incubation carried out for 3 hours at 37° C., 5% CO2, 95% air and 100% relative humidity, protected from light. Cells incubated with compounds for 48 hours are treated similarly except with the addition of 20 μL MTT solution per well and a subsequent incubation under the same conditions. After 3 hours of MTT incubation, well contents are aspirated carefully followed by addition of 150 μL DMSO per well. Plates are agitated to ensure solution of the formazan crystals in DMSO and absorbance read at 570 nm, (See Table I).
(§4) Percent growth is calculated for each compound's concentration relative to the control and zero measurement wells (T0; viability right before compound addition). If a test well's O.D. value is greater than the T0 measurement for that cell line % Growth=(test−zero)/(control−zero)×100

[2] = tested on: IL-6; assay: IL-6 in culture supernatants of NCIH 460 cells (ELISA); format: cell-based, Human; details: Homo sapiens, NCI-H460, NCIH 460, 5 hours
Description: Human Lung Cancer cell line (NCIH 460) is used for IL-6 measurement. 5000 cells/well were seeded in a 96 well plate and incubated in CO2 incubator at 37° C. for 24 hours. After 24 hours of incubation the medium from all wells were completed removed and added 100 μl of fresh DMEM containing 10% FCS. 100 μl of different concentrations of the drug were added and incubated for 5 hours in CO2 incubator at 37° C. After 5 hours of incubation the supernatants were collected and stored at −80° C. The concentration of IL-6 in the supernatant was measured using ELISA kit and the IC50 value of the compound was determined from the dose response curve, (See Table II).

[3] = tested on: NCIH460 cells; assay: Anti-cancer screen (MTT), NCIH460 cells; format: cell-based; details: Homo sapiens, NCI-H460, NCIH460, 48 hours, concentrations tested 0.01-100 μM; for CC50: read-out: LC50 (the source's name)
Description: as §1, §2, §3, §4

[4] = tested on: HCT116 cells; assay: Anti-cancer screen (MTT), HCT116 cells; format: cell-based; details: Homo sapiens, HCT-116, HCT116, 48 hours, concentrations tested 0.01-100 μM
Description: as §1, §2, §3, §4

[5] = tested on: NCIH460, HCT116, MDAMB-231/U 251; assay: Anti-cancer screen, mean GI50 over the cell lines; format: cell-based
Description: as §1, §2, §3, §4

Row | SMILES | GI50 [1] | IC (TGI) [1] | CC50 [1] | inhibition at 10 µM [2] | IC50 ([2]; read-out: IL-6 Inhibition IC50) | GI50 [3] | IC (TGI) [3] | CC50 [3] | GI50 [4] | IC (TGI) [4] | LC50 (concentration for 50% net cell kill relative to T0) [4] | GI50 [5] | inhibition at 1 µM ([2]; 1 μM)
1 | OC(CNCc1ccccc1)COc1cccc2[nH]c3ccccc3c12 (stereo not drawn) [Example 23, 1-(9H-carbazol-4-yloxy)-3-benzylaminopropan-2-ol] | 1 µM | 10 µM | 65 µM | 29.3% | 24 µM | 0.79 µM | 35 µM | 70 µM | 18 µM | 47 µM | 77 µM | 6.6 µM | 
2 | O=C(c1ccc([N+](=O)[O-])o1)N1CCN(CC(O)COc2cccc3[nH]c4ccccc4c23)CC1 (stereo not drawn) [Example 35, 1-(9H-carbazol-4-yloxy)-3-{4-(5-nitro-2-furoyl)piperazin-1-yl}propan-2-ol] | 3 µM | > 100 µM | > 100 µM | 80.4% |  | 0.8 µM | 7.5 µM | 60 µM | 6 µM | 42 µM | 85 µM | 3.27 µM | 45%
